{
  "source": "patent US10774053B2",
  "about": "“HIV protease inhibitors” (Gilead Sciences, Inc., priority 2017, dated 2020)",
  "key": {"[1]": {"tested_on": "HIV-1 (IIIB) in MT-4 cells", "assay": "microbe, parasite or virus in culture", "type": "cell-based", "conditions": "HIV-1, read-out: MT4 EC50"}, "[2]": {"target": "recombinant HIV protease (Human immunodeficiency virus type 1 group M subtype B (isolate HXB2) (HIV-1), UniProt P04585)", "assay": "biochemical", "type": "biochemical", "protocol": "HIV Protease Enzyme Inhibition (PI) Activity\nInhibitor potency against HIV protease was measured using an enzymatic assay with a fluorogenic readout. To a reaction buffer containing 100 mM ammonium acetate at pH 5.3, 100 mM NaCl, 1 mM EDTA, 1 mM DTT, 0.25 mg/mL BSA and 1% DMSO were added 10 nM of recombinant HIV protease (concentration based on protein monomer) and test compound at one of various concentrations. […] The total volume of the assay solution was 100 μL. […] The slopes of the progress curves were the measure of reaction rates. Reaction rates were plotted as a function of inhibitor concentration, and the data were fit with a four-parameter logistic fit using Graphpad PRISM software to yield IC50 values."}, "[3]": {"assay": "Liver microsomal stability, human liver microsomes"}, "[4]": {"tested_on": "single replication cycle recombinant virus containing the protease and reverse transcriptase coding regions of HIV-1 from a patient blood sample", "type": "cell-based", "description": "Resistance testing was done by Monogram Biosciences using their proprietary PhenoSense HIV assay."}, "[5]": {"conditions": "recombinant HIV protease, fluorogenic enzymatic assay, read-out: HIV PI IC50"}},
  "note": "Where two headings read alike, the source gives them in different places.",
  "data": [
    {"smiles": "CC(C)(C)C[C@]1(c2ccc(-c3cnn(C4CC4)c3)cc2)NC(=N)N([C@H](COC(=O)NC2(C(F)(F)F)CC2)c2ccc(Cl)c(-c3ncnn3C(F)F)c2)C1=O", "note": "[Compound 164]", "values": [
      {"measurement": "EC50", "setting": "[1]; MT-4 cells", "result": 16.5, "unit": "nM"},
      {"measurement": "IC50", "setting": "[2]; [5]", "result": 2.6, "unit": "nM"}
    ]},
    {"smiles": "CC(C)(C)C[C@]1(c2ccc(-c3ccn(C4CC4)n3)cc2)NC(=N)N([C@H](COC(=O)NC2(C(F)(F)F)CC2)c2ccc(Cl)c(-n3ncnc3C(F)F)c2)C1=O", "note": "[Compound 214]", "values": [
      {"measurement": "EC50", "setting": "[1]; Human immunodeficiency virus 1, IIIB, MT4, MT-4 cells", "result": 11.5, "unit": "nM"},
      {"measurement": "IC50", "setting": "[2]", "result": 3, "unit": "nM"}
    ]},
    {"smiles": "CC(C)(C)C[C@]1(c2ccc(-c3cnn(C(F)F)c3)cc2)NC(=N)N([C@H](COC(=O)NC2(C(F)(F)F)CC2)c2ccc(F)c(-n3ncnc3C(F)F)c2)C1=O", "note": "[Compound 380]", "values": [
      {"measurement": "Half-life in human liver microsomes", "setting": "[3]; human liver microsomes 0.5 mg/mL, 1 uM compound, NADPH-regenerating system, 37° C.", "result": "≥ 6.58", "unit": "h"},
      {"measurement": "EC50", "setting": "[1]; MT-4 cells", "result": 29.2, "unit": "nM"},
      {"measurement": "IC50", "setting": "[2]; [5]", "result": 3.5, "unit": "nM"}
    ]},
    {"smiles": "COC(=O)N[C@H](C(=O)N[C@@H](Cc1ccccc1)[C@@H](O)CN(Cc1ccc(-c2ccccn2)cc1)NC(=O)[C@@H](NC(=O)OC)C(C)(C)C)C(C)(C)C", "note": "[atazanavir, methyl N-[(2S)-1-[2-[(2S,3S)-2-hydroxy-3-[[(2S)-2-(methoxycarbonylamino)-3,3-dimethylbutanoyl]amino]-4-phenylbutyl]-2-[(4-pyridin-2-ylphenyl)methyl]hydrazinyl]-3,3-dimethyl-1-oxobutan-2-yl]carbamate]", "values": [
      {"measurement": "half-life at 1 uM", "setting": "[3]; human, liver microsomes", "result": "0.433 to 1.78", "unit": "h"},
      {"measurement": "Fold change in EC50", "setting": "[4]; Resistance mutations D30N L33F N88D L90M", "result": 5.27},
      {"measurement": "Fold change in EC50", "setting": "[4]; Resistance mutations L10F M46I I47V I50V I54V G73S I84V L90M", "result": 30.0},
      {"measurement": "Fold change in EC50", "setting": "[4]; Resistance mutations L10F M46L I54V V82A I84V", "result": ">101"},
      {"measurement": "Fold change in EC50", "setting": "[4]; Resistance mutations L10F V32I M46I I47V I50V I54L I84V", "result": 5.67},
      {"measurement": "Fold change in EC50", "setting": "[4]; Resistance mutations L10I L33F G48V I50L I54V/I V82A", "result": 87.0},
      {"measurement": "Fold change in EC50", "setting": "[4]; Resistance mutations L10I L33F/L G48V G73S V82A", "result": ">101"},
      {"measurement": "Fold change in EC50", "setting": "[4]; Resistance mutations L10I M46I I50V", "result": 1.99},
      {"measurement": "Fold change in EC50", "setting": "[4]; Resistance mutations L10I V32I L33F M46L I54L I84V L89V", "result": 97.0},
      {"measurement": "Fold change in EC50", "setting": "[4]; Resistance mutations L10I V32I M46I I47V G48V I54M V82T L90M", "result": 11.0},
      {"measurement": "Fold change in EC50", "setting": "[4]; Resistance mutations L10I V32I M46I I47V I50V I54L L90M", "result": 36.0},
      {"measurement": "Fold change in EC50", "setting": "[4]; Resistance mutations L10V/L M46I I50L V82A", "result": ">101"},
      {"measurement": "Fold change in EC50", "setting": "[4]; Resistance mutations L33F M46I I50V L76V", "result": 1.91}
    ]}
  ]
}
